{"source": "patent US20100317849A1", "about": "“Process For Producing Pure And Stable Form Of 2-Methyl-4-(4-Methyl-1-Piperazinyl) -10H-Thieno[2,3-B] [1,5] Benzodiazepine” (priority 2006, published 2010)", "key": {"[1]": {"test": "Stability of Olanzapine Form I at stressed conditions (40° C./75% RH), HPLC purity, total impurity and colour (UV absorbance at 430 nm)", "assay_type": "physicochemical"}, "[2]": {"details": "cited from earlier work"}, "[3]": {"test": "Stability of Olanzapine Form I at stressed conditions (40° C./75% RH), HPLC purity, total impurity and colour (UV absorbance at 430 nm)", "assay_type": "physicochemical", "details": "for Absorbance at 430 nm Log I/Io: colour; for Stability under stressed conditions: stressed conditions (40° C.)", "method": "The colour of Olanzapine is determined by following method:\nOlanzapine 50 mg was dissolved in 50 ml 0.1 N HCl in methanol, which was diluted to prepare 100 μgm/ml, 200 μgm/ml, 500 μgm/ml of Olanzapine solution. […] Calibration curve was plotted between absorbance and concentration.\n% of Colour=Amount of colour from calibration curve×100/Weight of sample taken."}}, "note": "Entries after “also recorded” stand apart in the source; their conditions may differ.", "data": [{"smiles": "Cc1cc2c(s1)Nc1ccccc1N=C2N1CCN(C)CC1", "note": "[Olanzapine Form I, 2-methyl-4-(4-methyl-1-piperazinyl)-10H-thieno[2,3-b][1,5]benzodiazepine]", "values": [{"measurement": "Impurity Profile Chromatographic purity %", "setting": "[1]; 30 DAYS/40° C./75% RH", "result": 99.94, "unit": "%"}, {"measurement": "Impurity Profile Total Imp. % age", "setting": "[1]; 30 DAYS/40° C./75% RH", "result": 0.06, "unit": "% age"}, {"measurement": "Absorbance at 430 nm Log I/Io", "setting": "[1]; 30 DAYS/40° C./75% RH, colour", "result": 0.402}, {"measurement": "Impurity Profile Chromatographic purity %", "setting": "[1]; 60 DAYS/40° C./75% RH", "result": 99.96, "unit": "%"}, {"measurement": "Impurity Profile Total Imp. % age", "setting": "[1]; 60 DAYS/40° C./75% RH", "result": 0.04, "unit": "% age"}, {"measurement": "Impurity Profile Chromatographic purity %", "setting": "[1]; 120 DAYS/40° C./75% RH", "result": 99.95, "unit": "%"}, {"measurement": "Impurity Profile Total Imp. % age", "setting": "[1]; 120 DAYS/40° C./75% RH", "result": 0.05, "unit": "% age"}, {"measurement": "Impurity Profile Chromatographic purity %", "setting": "[1]; 180 DAYS/40° C./75% RH", "result": 99.93, "unit": "%"}, {"measurement": "Impurity Profile Total Imp. % age", "setting": "[1]; 180 DAYS/40° C./75% RH", "result": 0.07, "unit": "% age"}, {"measurement": "Impurity Profile Chromatographic purity %", "setting": "[1]; Initial", "result": 99.97, "unit": "%"}, {"measurement": "Impurity Profile Total Imp. % age", "setting": "[1]; Initial", "result": 0.03, "unit": "% age"}, {"measurement": "Stability / colour on standing", "setting": "[2]; Form I crystallized from acetonitrile per U.S. Pat. No. 5,229,382, on standing", "result": "metastable and changes its color on standing"}, {"measurement": "Stability at room temperature", "setting": "[2]; Form I prepared from alcoholic solvent, U.S. Pat. No. 6,906,062, room temperature", "result": "stable form at room temperature"}, {"measurement": "Absorbance at 430 nm Log I/Io", "setting": "[3]; 60 DAYS/40° C./75% RH", "result": 0.407}, {"measurement": "Absorbance at 430 nm Log I/Io", "setting": "[3]; 120 DAYS/40° C./75% RH", "result": 0.4034}, {"measurement": "Absorbance at 430 nm Log I/Io", "setting": "[3]; 180 DAYS/40° C./75% RH", "result": 0.4026}, {"measurement": "Absorbance at 430 nm Log I/Io", "setting": "[3]; Initial", "result": 0.4}, {"measurement": "Colour stability upon storage", "setting": "[3]; high temperature (40° C.), high moisture or stress conditions", "result": "colour stable; also recorded: stable colour"}, {"measurement": "Stability under stressed conditions", "setting": "[3]; listed as Form I", "result": "highly stable"}, {"measurement": "Stability under stressed conditions", "setting": "[3]; listed as olanzapine", "result": "high stability"}]}]}
